In patent publication EP1255553B1 (Stegram Pharmaceuticals Limited, priority 2000, dated 2001):
Entries after “also recorded” stand apart in the source; their conditions may differ. Like-named read-outs stand apart in the source and are kept apart here.

Tests used:
[1] = tested on: rat prostate oestrogen receptors; assay: Scatchard analysis of tritiated oestradiol binding, rat prostate; design: dose or concentration left out as unconfirmed; conditions: Figure 3
Description: (§1) Using tissue, snap frozen at time of excision, cytosols were prepared by dismembration using a Braun II Mikrodismembrator. Frozen tissue was minced and pulverised. The resultant powder was resuspended in 1-mm phosphate buffer containing 10% (v/v) glycerol, 1.5mm EDTA, 10mM monothioglycerol, 20mM Sodium molybdate, aprotinin (1ug/ml) and STI (1ug/ml) and phenyl methyl sulfonyl fluoride (30ug/ml) at pH 7.4 by stirring for 15 minutes at 4°C. This suspension was centrifuged at 100,000g for 1 hour at 4°C and the supernantant was used for competition analysis.
(§2) After overnight incubation at 4°C assay tubes were incubated with DCC as above to remove free steroid and aliquots of the resultant supernatant were incubated with toluene based scintillant and counted on a Scintillation Counter. Data obtained was analysed according to the method of Scatchard.

[2] = tested on: oestrogen response element driven GFP gene in MCF-7 breast cancer cell line; assay: Oestrogen reporter plasmid xTG (GFP) transcriptional activity in MCF-7 cells; assay type: cell-based; conditions: compound at 10^-6M plus E2 at 10^-8M; MCF-7 transiently transfected with xTG for three days
Text: XTG consists of a oestrogen response element. Upstream of a simple TATA promoter which together drive transcription of the GFP gene from the jellyfish Aequorea victoria. The xERE sequence is made up of the following - GGTCA CAG TGACC […] (SEQUENCE ID NO: 1)
The GFP gene - from GFPuv was supplied by Clontech (Clontech Laboratories, Inc., 1020 East Meadow Circle, Palo Alto, CA 94303-4230, USA)
E2 was used at a concentration of 10^-8M while all other compounds were used at 10^-6M. All ligands were added to cell media during transfection.

[3] = tested on: oestrogen receptor isoforms; assay: Isoelectric focusing (IEF) of 3H oestradiol binding to oestrogen receptor isoforms in tissue cytosol; design: species or system rat; conditions: Trilostane 10 micromolar, 3H oestradiol 5nM
[4] = tested on: rat uterine oestrogen receptors; assay: Scatchard analysis of tritiated oestradiol binding, rat uterus; conditions: Figure 2, Trilostane at 10micromolar
Description: as §1, §2

[5] = advanced breast cancer, cited from earlier work
MCF-7 cells = assay: Thymidine labeling of MCF-7 cells; assay type: cell-based
Description: MCF-7 cells were plated out in multiwell dishes and grown for 24 hours in serum free medium (MEM). […] Radiolabelled thymidine was added to each well ([…]) and cells were then cultured for a further 24 hours. At the end of this period the medium was aspirated and the cultured cells were rinsed 3-times with cold buffer solution(50mm Tris-HCl, pH 7.4). The cells were then dissolved in 1ml of 0.1N NaOH and 0.5ml of this solution was mixed with 2.5ml of Scintillation cocktail and the intracellular radioactivity of ^3H was measured with a liquid scintillation counter.

[6] = tested on: oestrogen receptor isoforms in rat uterus; assay: Tritiated tamoxifen binding to oestrogen receptor isoforms (IEF); conditions: Figure 5, test compound 10 micromolar, tritiated tamoxifen 10^-6M
Description: as §1
After overnight incubation free steroid was separated from bound by incubating with dextran coated charcoal (0.25% w/v charcoal, 0.025% w/v Dextran T70 in 10mM Tris 1.5mM EDTA at pH 7.4) for 10 mins at 4°C. The DCC was pelleted by centrifugation (10,000g for 10 mins) and aliquots of the supernatant were used for IEF separation.
Isoelectric focusing (IEF) gels were cast in slabs of size 125 x 260 mm and separation was conducted along either the short side (short run) or the long side (long run) of the gel. […]
After DCC extraction, aliquots (270ul) of the radioactive supernatant (3 mg protein/ml) derived from SSD assay were loaded near the cathode. […] After the run the gels were cut into 2.5 mm slices and each slice was incubated with 5ml scintillation cocktail for 24h at room temperature and radioactivity assayed.

[7] = molecular target: oestrogen receptor present in MCF-7 breast cancer cell extracts / oestrogen response element (Homo sapiens, UniProt P03372); assay: Electrophoretic mobility shift assay (EMSA) of ER-ERE complex formation in extracts of treated MCF-7 cells; assay type: cell-based; conditions: MCF7, 24 h, read-out: ER-ERE complex formation
[8] = cited from earlier work

oestrogen receptor present in MCF-7 breast cancer cell extracts / oestrogen response element, sequence (P03372 whole entry): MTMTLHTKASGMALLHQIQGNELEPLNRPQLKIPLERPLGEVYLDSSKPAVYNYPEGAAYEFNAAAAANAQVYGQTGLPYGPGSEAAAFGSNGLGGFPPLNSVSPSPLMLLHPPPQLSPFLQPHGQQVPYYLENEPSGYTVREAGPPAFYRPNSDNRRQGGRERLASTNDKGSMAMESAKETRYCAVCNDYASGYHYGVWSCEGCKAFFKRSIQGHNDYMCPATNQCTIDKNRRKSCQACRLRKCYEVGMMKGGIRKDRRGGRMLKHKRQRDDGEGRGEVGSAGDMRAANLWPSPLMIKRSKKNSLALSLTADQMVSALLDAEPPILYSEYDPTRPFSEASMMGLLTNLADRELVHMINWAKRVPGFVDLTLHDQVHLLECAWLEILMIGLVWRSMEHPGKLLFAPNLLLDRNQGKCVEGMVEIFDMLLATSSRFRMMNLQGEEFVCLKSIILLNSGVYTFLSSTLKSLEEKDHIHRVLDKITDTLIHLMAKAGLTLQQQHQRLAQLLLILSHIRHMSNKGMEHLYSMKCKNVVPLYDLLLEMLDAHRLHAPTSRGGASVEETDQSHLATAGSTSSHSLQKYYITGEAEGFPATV

Compound: C[C@]12CC[C@H]3[C@@H](CC[C@@]45O[C@@H]4C(O)=C(C#N)C[C@]35C)[C@@H]1CC[C@@H]2O [Trilostane, (4α,5α-17β)-4,5-epoxy-3,17-dihydroxyandrost-2-ene-2carbonitrile]
- concentration of total receptor (x axis intercept of Scatchard plot) [1]: increases the concentration of total receptor; also recorded: an increase in receptor concentration
- E2-driven transactivation / transcription of GFP [2]: reduced transcription of GFP
- binding of oestrogen onto the oestrogen receptor isoforms [3]: modulated the binding of oestrogen onto all the oestrogen receptor isoforms but principally onto the pI 6.3 isoform
- concentration of total receptor (X axis intercept of Scatchard plot) [4]: increases the apparent affinity of oestrogen binding (given by the slope of the regression lines) and the concentration of total receptor
- response rate ([5]; Ingle J.N. et al 1990): 38%
- response rate ([5]; Williams C.J. et al 1993): 29%
- blocking of the oestradiol-induced increase in thymidine labeling (MCF-7 cells; E2+T: Oestradiol 10^-8 M and Trilostane 10µM, 24 hours): completely blocked
- inhibition at 10 µM (MCF-7 cells; Homo sapiens, MCF7, 24 h, read-out: inhibition of thymidine uptake of MCF-7 cells compared with control): 31%
- tritiated tamoxifen binding to oestrogen receptor isoforms [6]: increased tritiated tamoxifen binding to oestrogen receptor isoforms

Compound: C[C@]12CC[C@H]3[C@@H](CC[C@@]45O[C@@H]4C(=O)[C@H](C#N)C[C@]35C)[C@@H]1CCC2=O [keto-trilostane]
- activity at 10 µM [7]: 68%
- tritiated tamoxifen binding to oestrogen receptor isoforms [6]: increased tritiated tamoxifen binding to oestrogen receptor isoforms

Compound: C[C@]12CC[C@@H]3c4ccc(O)cc4CC[C@H]3[C@@H]1CC[C@@H]2O [oestradiol]
- activation at 0.01 µM (MCF-7 cells; Homo sapiens, MCF7, 24 h, read-out: increase in thymidine labeling compared to control): 15%

Compound: O=C(c1ccc(OCCN2CCCCC2)cc1)c1c(-c2ccc(O)cc2)sc2cc(O)ccc12 [raloxifene]
- E2-driven transactivation / transcription of GFP [2]: reduced E2-driven transactivation

Compound: CC/C(=C(\c1ccccc1)c1ccc(OCCN(C)C)cc1)c1ccccc1 [tamoxifen]
- E2-driven transactivation / transcription of GFP [2]: reduced E2-driven transactivation
- reduction of the risk of invasive breast cancer ([8]; all women, two-sided P<.00001): 49%
- occurrence of oestrogen receptor-negative tumors ([8]; in vivo): no difference
- reduction of the occurrence of oestrogen receptor-positive tumors ([8]; in vivo): 69%
- cumulative incidence of invasive breast cancer ([8]; through 69 months of follow-up, tamoxifen group): 22.0 per 1000 women
- reduction of the risk of noninvasive breast cancer ([8]; two-sided P<.002): 50%
- decreased risk of invasive breast cancer ([8]; women aged 49 years or younger): 44%
- decreased risk of invasive breast cancer ([8]; women aged 50-59 years): 51%
- decreased risk of invasive breast cancer ([8]; women aged 60 years or older): 55%
- decreased risk of invasive breast cancer ([8]; women with a history of atypical breast hyperplasia): 86%
- decreased risk of invasive breast cancer ([8]; women with a history of breast lobular carcinoma in situ): 56%
